Experimental data as given in patent US11214803B2, “Modulators of YAP1 expression” (Ionis Pharmaceuticals, Inc., priority 2019, dated 2022).
Marks after values point to notes of the source that are not given here. Strand notation (5' to 3'): a small letter for the sugar, then the base; units joined by * are phosphorothioate-linked, units joined directly phosphodiester-linked; [ ] holds rarer units or linkages, { } end groups; capitals alone tell only the bases. e = 2'-O-(2-methoxyethyl) (MOE); k = constrained ethyl (cEt); [5mC] = 5-methylcytosine; d = 2'-deoxy (DNA); m = 2'-O-methyl

How the values were obtained:
[1] = Tolerability in CD-1 mice, plasma chemistry markers (Example 17); type: in vivo; details: male CD-1 mice, 50 mg/kg s.c. twice a week for four weeks (8 treatments), day 27
Experimental: (§1) CD-1 mice were treated with modified oligonucleotides selected from studies described above and evaluated for changes in the levels of various plasma chemistry markers.
(§2) Groups of four male CD-1 mice at 4-5 weeks of age (obtained from Charles River) were injected subcutaneously twice a week for four weeks (for a total of 8 treatments) with 50 mg/kg of modified oligonucleotides. One group of male CD-1 mice was injected with PBS. Mice were euthanized on day 27 post start of treatment (24 hrs following the final administration).

[2] = Tolerability in CD-1 mice, body and organ weights (Example 17); type: in vivo; details: male CD-1 mice, 50 mg/kg s.c. twice a week for four weeks (8 treatments), end of study (day 27)
Experimental: as §2
(§3) Body weights of CD-1 mice were measured at the end of the study, and the average body weight for each group is presented in the table below. Modified oligonucleotides that caused any changes in organ weights outside the expected range for modified oligonucleotides were excluded from further studies.

[3] = Tolerability in Sprague-Dawley rats, body and organ weights (Example 21); type: in vivo; details: male Sprague-Dawley rats, 50 mg/kg s.c. weekly for 6 weeks (7 doses); for Kidney weight / Liver weight / Spleen weight: end of study; for body weight: terminal, prior to necropsy
Experimental: Terminal body weight was measured prior to necropsy. Ionis oligonucleotides that caused any changes in organ weights outside the expected range for modified oligonucleotides were excluded from further studies.

[4] = Tolerability in Sprague-Dawley rats, kidney function, urine total protein to creatinine ratio (Example 21); details: male Sprague-Dawley rats, 50 mg/kg s.c. weekly for 6 weeks (7 doses)
Experimental: Male Sprague-Dawley rats were maintained on a 12-hour light/dark cycle and fed ad libitum with Purina normal rat chow. Groups of 4 Sprague-Dawley rats each were weekly injected subcutaneously with 50 mg/kg of Ionis oligonucleotide for 6 weeks (total 7 doses). Forty-eight hours after the last dose, the rats were euthanized; and organs, urine and plasma were harvested for further analysis.
To evaluate the effect of Ionis oligonucleotides on kidney function, urinary levels of total protein and creatinine were measured using an automated clinical chemistry analyzer (Hitachi Olympus AU400c, Melville, N.Y.).

Yap1 mRNA [5] = assay: Dose-dependent inhibition of human Yap1 in SNU-449 cells (Example 9, RTS36584); type: cell-based; details: free uptake; for % UTC (Yap1 mRNA): approximately 48 hours; for IC50: linear regression on a log/linear plot
Outline: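 Read-out was Yap1 mRNA (primer-probe RTS36584) normalised to total RNA by RIBOGREEN, given as % of untreated cells, with IC50 fitted by linear regression of log/linear data. Oligonucleotides were dosed by free uptake to SNU-449 cells, 10,000/well, for ~48 h.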

[6] = Tolerability in Sprague-Dawley rats, plasma chemistry markers (Example 21); type: in vivo; details: male Sprague-Dawley rats, 50 mg/kg s.c. weekly for 6 weeks (7 doses), 48 hours after last dose
Experimental: Sprague-Dawley rats are a multipurpose model used for safety and efficacy evaluations. The rats were treated with Ionis modified oligonucleotides from the studies described in the Examples above and evaluated for changes in the levels of various plasma chemistry markers.

Yap1 mRNA [7] = assay: Dose-dependent inhibition of human Yap1 in A-431 cells (Example 8, 10,000 cells per well, RTS4814); type: cell-based; details: free uptake, approximately 48 hours, RTS4814; for Yap1 mRNA, % UTC: A-431 cells, 10,000 cells per well; for IC50: A-431 cells, linear regression on log/linear plot
Outline: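 Yap1 mRNA, normalized to RIBOGREEN total RNA and expressed as % untreated control, was read with RTS4814 about 48 h after free-uptake oligonucleotide treatment of A-431 cells at 10,000 cells/well. IC50 derived by linear regression of log/linear data.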

[8] = Tolerability in CD-1 mice, body and organ weights (Example 16); type: in vivo; details: male CD-1 mice, 50 mg/kg s.c. twice a week for four weeks (8 treatments), end of study (day 27)
Experimental: as §2, §3

[9] = Tolerability in CD-1 mice, plasma chemistry markers (Example 16); type: in vivo; details: male CD-1 mice, 50 mg/kg s.c. twice a week for four weeks (8 treatments), day 27
Experimental: as §1, §2

Yap1 mRNA [10] = assay: Inhibition of human Yap1 mRNA in SNU449 hepatocellular carcinoma xenograft tumors (Example 26); type: in vivo; details: SNU449 xenografts in NSG mice, 50 mg/kg twice weekly for five days, relative to PBS treated animals
Experimental: A SNU449 hepatocellular carcinoma xenograft tumor model was used to evaluate activity of modified oligonucleotides targeted to human Yap1. Ten million SNU449 cells in 30% matrigel were implanted subcutaneously into the flanks of female NOD Cg-Prkdcscid ll2rgtm1Wjl/SzJ (NSG) mice (from Jackson Laboratory) at 4-6 weeks of age. When tumors reached an average volume of 100 mm^3, approximately two weeks post-implantation, groups of four mice each were administered at 50 mg/kg twice weekly with modified oligonucleotides for five days. Tumors were collected and tested for Yap1 mRNA knockdown by RT-qPCR. Yap1 mRNA levels were measured as previously described using the Human Yap1 primer-probe set RTS4814. Yap1 mRNA levels were normalized to actin-beta content, as measured by primer probe set RTS5002. Results are presented in the tables below as percent control of the amount of Yap1 mRNA relative to PBS treated animals (% control).

Substance | Kidney weight [3] | Liver weight [3] | Spleen weight [3] | body weight [3] [g] | URINE P/C ratio (total protein to creatinine ratio) [4] | % UTC (Yap1 mRNA) (Yap1 mRNA [5]; 31.3 nM) [% UTC] | % UTC (Yap1 mRNA) (Yap1 mRNA [5]; 125.0 nM) [% UTC] | % UTC (Yap1 mRNA) (Yap1 mRNA [5]; 500.0 nM) [% UTC] | % UTC (Yap1 mRNA) (Yap1 mRNA [5]; 2000.00 nM) [% UTC] | IC50 (Yap1 mRNA [5]) [nM] | ALT [6] | AST [6] | BUN [6] | TBIL [6] | also measured
1097037 (kA*kG*kA*dT*dT*dT*dA*dG*dG*dA*dT*dG*d[5mC]*kA*kT*kG; antisense) [compound 1097037] |  |  |  |  |  |  |  |  |  |  |  |  |  |  | ALT [1]: 73 U/L; AST [1]: 97 U/L; BUN [1]: 23 mg/dL; TBIL [1]: 0.12 mg/dL; Kidney weight [2]: 0.52 g; Liver weight [2]: 2.33 g; Spleen weight [2]: 0.21 g; body weight [2]: 33 g
1198312 (kG*k[5mC]*kA*d[5mC]*dT*dT*dT*dT*dA*d[5mC]*dA*dT*kT*eA*kG*eG) [compound 1198312] | 4.26 g | 19 g | 2.19 g | 365 | 60 | 76 | 34 | 10 | 5 | 100 | 132 U/L | 108 U/L | 25 mg/dL | 0.14 mg/dL | 
1198874 (kA*kA*dG*dT*dG*dT*dA*dT*dG*dT*d[5mC]*kA*eG*kA*eA*kG) [compound 1198874] | 3.67 g | 20 g | 2.61 g | 372 | 9 | 36 | 8 | 1 | 0 | < 30 | 73 U/L | 102 U/L | 22 mg/dL | 0.16 mg/dL | 
1075395 (antisense kA*kT*kG*dA*dA*dT*dA*dA*dG*dT*dA*dT*dG*k[5mC]*k[5mC]*kA) [compound 1075395] |  |  |  |  |  |  |  |  |  |  |  |  |  |  | ALT [1]: 38 U/L; AST [1]: 51 U/L; BUN [1]: 21 mg/dL; TBIL [1]: 0.18 mg/dL; Yap1 mRNA, % UTC (Yap1 mRNA [7]; 31.3 nM): 60 % UTC; Yap1 mRNA, % UTC (Yap1 mRNA [7]; 125.0 nM): 18 % UTC; Yap1 mRNA, % UTC (Yap1 mRNA [7]; 500.0 nM): 7 % UTC; Yap1 mRNA, % UTC (Yap1 mRNA [7]; 2000.00 nM): 5 % UTC; IC50 (Yap1 mRNA [7]): < 20 nM; Kidney weight [2]: 0.49 g; Liver weight [2]: 2.30 g; Spleen weight [2]: 0.20 g; body weight [2]: 34 g
1198612 (kA*kA*kG*dT*dG*dT*dA*dT*dG*dT*d[5mC]*dA*kG*kA*kA*eG) [compound 1198612] | 3.60 g | 17 g | 2.33 g | 345 | 11 | 44 | 12 | 2 | 0 | < 30 | 74 U/L | 91 U/L | 31 mg/dL | 0.12 mg/dL | 
1076186 (kA*kT*kT*dT*dA*dG*dG*dA*dT*dG*d[5mC]*dA*dT*kG*kG*kT) [compound 1076186] |  |  |  |  |  |  |  |  |  |  |  |  |  |  | Kidney weight [8]: 0.58 g; Liver weight [8]: 2.42 g; Spleen weight [8]: 0.16 g; body weight [8]: 37 g; ALT [9]: 74 U/L; AST [9]: 97 U/L; Albumin [9]: 2.5 g/dL; BUN [9]: 23 mg/dL; TBIL [9]: 0.16 mg/dL
1198615 (kT*kT*kA*dA*dA*dG*dT*dG*dT*dA*dT*dG*kT*k[5mC]*kA*eG) [compound 1198615] | 3.01 g | 16 g | 2.35 g | 369 | 8 | 52 | 23 | 5 | 2 | < 30 | 38 U/L | 71 U/L | 21 mg/dL | 0.13 mg/dL | Yap1 mRNA in tumors, % control (Yap1 mRNA [10]): 62 % control
1074756 (kG*k[5mC]*kA*d[5mC]*dT*dT*dT*dT*dA*d[5mC]*dA*dT*dT*kA*kG*kG) [compound 1074756] | 4.71* g | 21* g | 1.99* g | 349 | 167 | 42 | 20 | 6 | 3 | < 30 | 114* U/L | 79* U/L | 0.57* mg/dL | 0.10* mg/dL | Yap1 mRNA, % UTC (Yap1 mRNA [7]; 31.3 nM): 22 % UTC; Yap1 mRNA, % UTC (Yap1 mRNA [7]; 125.0 nM): 7 % UTC; Yap1 mRNA, % UTC (Yap1 mRNA [7]; 500.0 nM): 4 % UTC; Yap1 mRNA, % UTC (Yap1 mRNA [7]; 2000.00 nM): 4 % UTC; IC50 (Yap1 mRNA [7]): < 20 nM
1198873 (kA*kG*dT*dG*dT*dA*dT*dG*dT*d[5mC]*dA*kG*eA*kA*eG*kA; antisense) [compound 1198873] | 3.65 g | 19 g | 2.42 g | 408 | 9 | 38 | 12 | 2 | 0 | < 30 | 78* U/L | 79* U/L | 24* mg/dL | 0.17* mg/dL | 
1200857 (kA*kG*kT*dG*dT*mA*dT*dG*dT*d[5mC]*dA*dG*dA*kA*kG*kA; antisense) [compound 1200857] | 6.97 g | 19 g | 2.55 g | 307 | 52 | 66 | 30 | 8 | 2 | 100 | 183 U/L | 318 U/L | 56 mg/dL | 4.93 mg/dL | 
